Test results taken from patent publication US20190084968A1, “FUMAGILLOL HETEROCYCLIC COMPOUNDS AND METHODS OF MAKING AND USING SAME” (Zafgen, Inc., priority 2015, published 2019).
Several values for one entry are separate records, joined by “and”; a condition that tells them apart may be missing. Identical values can stand only once. Counter-ions that a name gives are not always drawn.

How the values were obtained:
[1] = tested on: embryo/fetal development in pregnant Sprague Dawley rats; details: 6 mpk subcutaneously once every three days, Gestation Days 6-18, pregnant rats
Procedure: The objective of this study design was to evaluate the potential effects of disclosed compounds on embryo/fetal development when given subcutaneously to pregnant rats once every three days during the critical period of organogenesis (Gestation Days 6-18). Female, Sprague Dawley rats, approximately 10 weeks of age, time bred, were ordered from a certified vendor and housed individually housed in stainless steel cages suspended over flush pans, on a 12-hour light-dark cycle (0700-1900) at 20-26° C. and 30-70% humidity. Rats were fed a standard rodent chow and provided water ad libitum. Rats were received and housed in the facility for a period of approximately 1 to 2 days.
Compounds were formulated using 100% DMSO mixed in Sterile Water for Injection, resulting in 2% DMSO solution in water. If necessary, due to limited solubility of a test article, a higher percentage of DMSO solution in water was used. Groups of 8 mated and presumed pregnant female rats were given subcutaneous doses of vehicle or test article, once every three days, beginning on Gestation Day 6 and ending on Gestation Day 18 (Days 6, 9, 12, 15, and 18), maintained two more days, and then euthanized and necropsied on Gestation Day 20. Body weights was recorded for all animals on Gestation Days 5 (purpose of randomization), 6, 9, 12, 15, 18, and 20 (scheduled euthanasia). Food consumption by weight was recorded on Gestation Days 6, 9, 12, 15, 18, and 20 (scheduled termination).
At necropsy, the dams were examined visually for external abnormalities including palpable masses. The abdominal, thoracic, and cranial cavities and their contents were examined for abnormalities and findings will be recorded. The reproductive tract were examined to record the number of ovarian corpora lutea, the number and location of uterine implantation sites noting the position of the cervix, and the number of early resorptions, late resorptions, live fetuses, and dead fetuses. For dead fetuses and late resorptions, crown-to-rump length and weight were recorded, if possible, and the fetus was discarded. For viable fetuses, weight, sex, and grossly visible external abnormalities were recorded.

[2] = tested on: Diet Induced Obese (DIO) C57BL/6 mice; test: 10 day DIO mouse model (body weight, food intake, hematology, blood chemistry); format: in vivo
From the text: The objective of this study design was to investigate the efficacy of disclosed compounds in a 10 day DIO mouse model. Effects on body weight, food intake, hematology and blood chemistry were the primary readouts of this study design. […] Mice were fed Research Diets D12492 (60% Kcal fat, 20% Kcal carbohydrate and 20% protein) and provided water ad libitum. DIO mice were received and housed in the facility for approximately two weeks prior to the start of test article administration. On Day −4 or −3, mice were randomized into study groups based on body weight and body weights were continued to be recorded daily for the duration of the study. Daily food intake was assessed starting on Study Day −2 by weighing of the food with hopper together to avoid loss of food in transfer.
(§1) Compounds were formulated into a 100% DMSO stock (at 9 mg/mL) prior to the start, and further diluted into the target working concentration using the vehicle of 10% DMSO in water. Prior to test article administration, starting on Day −3 a dosing acclimation occured with all animals receiving a subcutaneous injection of vehicle (10% DMSO) only for 3 days. Starting on Day 1, test compounds or vehicle were administered based on individual body weight, subcutaneously, once a day for 10 days. All mice were sacrificed on Day 11, 24 hours following the final dosing on Day 10. After sacrifice, whole blood was collected and analyzed for hematology and blood chemistry parameters.
(§2) Compounds were tested vs. vehicle at various doses (1.0, 0.5, 0.3, 0.1, 0.03 mpk sc (mg per kg animal weight delivered subcutaneously), and the results are shown in Table 2 below.

[3] = tested on: Sprague Dawley rats on high fat diet (DIO); test: 11 day rat DIO model (body weight, food intake, hematology, blood chemistry); format: in vivo
From the text: The objective of this study design is to investigate the efficacy of disclosed compounds in an 11 day rat DIO model used to screen compounds for pharmacologic efficacy on endpoints related to obesity and metabolism. Effects on body weight, food intake, hematology and blood chemistries were the primary readouts of this study design. […] Rats were fed Research Diets D12451 (45% High Fat) and provided water ad libitum. Rats were received and housed in the facility for at least two or three weeks prior to start of test article administration. On Day −4 or −3, rats were randomized into study groups based on body weight and body weights were continued to be recorded daily for the duration of the study. Daily food intake was assessed starting on Study Day −2 by weighing the hopper including the food to avoid loss of food in transfer.
as §1, with “for 11” for “for 10”, “All animals” for “All mice”, “11, approximately 2” for “11, 24”, “Day 11.” for “Day 10.”
as §2

Row | SMILES | Rat Embryofetal @6 mpk [1] | other results
1 | CO[C@@H]1[C@H](OC(=O)N2CC(CCN3CCOCC3)C2)CC[C@]2(CO2)[C@H]1[C@@]1(C)O[C@@H]1CC=C(C)C [Example 1, (3R,4S,5S,6R)-5-methoxy-4-((2R,3R)-2-methyl-3-(3-methylbut-2-en-1-yl)oxiran-2-yl)-1-oxaspiro[2.5]octan-6-yl 3-(2-morpholinoethyl)azetidine-1-carboxylate] | Negative | 
2 | CO[C@@H]1[C@H](OC(=O)N2CC(CCN3CC(F)(F)C3)C2)CC[C@]2(CO2)[C@H]1[C@@]1(C)O[C@@H]1CC=C(C)C [Example 2, (3R,4S,5S,6R)-5-methoxy-4-((2R,3R)-2-methyl-3-(3-methylbut-2-enyl)oxiran-2-yl)-1-oxaspiro[2.5]octan-6-yl 3-(2-(3,3-difluoroazetidin-1-yl)ethyl)azetidine-1-carboxylate] | Negative | 
3 | CO[C@@H]1[C@H](OC(=O)N2CC(CCN3CCC(O)CC3)C2)CC[C@]2(CO2)[C@H]1[C@@]1(C)O[C@@H]1CC=C(C)C [Example 7, (3R,4S,5S,6R)-5-methoxy-4-((2R,3R)-2-methyl-3-(3-methylbut-2-en-1-yl)oxiran-2-yl)-1-oxaspiro[2.5]octan-6-yl 3-(2-(4-hydroxypiperidin-1-yl)ethyl)azetidine-1-carboxylate] |  | DIO Mouse 10-day weight loss vs vehicle at indicated dose ([2]; DIO mouse, 0.3 mpk sc, once a day for 10 days): 1.8%
4 | CO[C@@H]1[C@H](OC(=O)N2CC(CCN3CC4CCC(C3)O4)C2)CC[C@]2(CO2)[C@H]1[C@@]1(C)O[C@@H]1CC=C(C)C [Example 33, (4S,5S,6R)-5-methoxy-4-((2R,3R)-2-methyl-3-(3-methylbut-2-enyl)oxiran-2-yl)-1-oxaspiro[2.5]octan-6-yl 3-(2-(8-oxa-3-azabicyclo[3.2.1]octan-3-yl)ethyl)azetidine-1-carboxylate] |  | percent body weight loss vs vehicle at 0.3 mg/kg ([2]; 240 h, DIO mouse, 0.3 mpk sc, once a day for 10 days, read-out: DIO Mouse 10-day weight loss vs vehicle at indicated dose): 15.9%
5 | CNC(=O)OC1CN(C(=O)O[C@@H]2CC[C@]3(CO3)[C@@H]([C@@]3(C)O[C@@H]3CC=C(C)C)[C@@H]2OC)C1 [Example 74, (3R,4S,5S,6R)-5-methoxy-4-((2R,3R)-2-methyl-3-(3-methylbut-2-enyl)oxiran-2-yl)-1-oxaspiro[2.5]octan-6-yl 3-(methylcarbamoyloxy)azetidine-1-carboxylate] | Negative | 
6 | CO[C@@H]1[C@H](OC(=O)N2CC(OC(=O)N3CCN(C)CC3)C2)CC[C@]2(CO2)[C@H]1[C@@]1(C)O[C@@H]1CC=C(C)C [Example 78, 1-(((3R,4S,5S,6R)-5-methoxy-4-((2R,3R)-2-methyl-3-(3-methylbut-2-enyl)oxiran-2-yl)-1-oxaspiro[2.5]octan-6-yloxy)carbonyl)azetidin-3-yl 4-methylpiperazine-1-carboxylate] | Positive | 
7 | CO[C@@H]1[C@H](OC(=O)N2CC(OC(=O)N3CCN(CC(F)(F)F)CC3)C2)CC[C@]2(CO2)[C@H]1[C@@]1(C)O[C@@H]1CC=C(C)C [Example 81, 1-(((3R,4S,5S,6R)-5-methoxy-4-((2R,3R)-2-methyl-3-(3-methylbut-2-enyl)oxiran-2-yl)-1-oxaspiro[2.5]octan-6-yloxy)carbonyl)azetidin-3-yl 4-(2,2,2-trifluoroethyl)piperazine-1-carboxylate] | Positive | 
8 | CCN(CC)CCNC(=O)CCC1CN(C(=O)O[C@@H]2CC[C@]3(CO3)[C@@H]([C@@]3(C)O[C@@H]3CC=C(C)C)[C@@H]2OC)C1 [Example 88, (3R,4S,5S,6R)-5-methoxy-4-((2R,3R)-2-methyl-3-(3-methylbut-2-enyl)oxiran-2-yl)-1-oxaspiro[2.5]octan-6-yl 3-(3-(2-(diethylamino)ethylamino)-3-oxopropyl)azetidine-1-carboxylate formate] | Positive | DIO Rat 11-day weight loss vs vehicle at indicated dose ([3]; rat, in vivo, sc, 0.3 mg/kg): 4.4%; DIO Mouse 10-day weight loss vs vehicle at indicated dose ([2]; mouse, in vivo, sc, 0.3 mg/kg): 9%
9 | CO[C@@H]1[C@H](OC(=O)N2CC(Cc3ccc(C)nc3)C2)CC[C@]2(CO2)[C@H]1[C@@]1(C)O[C@@H]1CC=C(C)C [Example 101, (3R,4S,5S,6R)-5-methoxy-4-((2R,3R)-2-methyl-3-(3-methylbut-2-enyl)oxiran-2-yl)-1-oxaspiro[2.5]octan-6-yl 3-((6-methylpyridin-3-yl)methyl)azetidine-1-carboxylate] | Positive | 
10 | CCN(CC)CCC1CN(C(=O)O[C@@H]2CC[C@]3(CO3)[C@@H]([C@@]3(C)O[C@@H]3CC=C(C)C)[C@@H]2OC)C1 [Example 103, (3R,4S,5S,6R)-5-methoxy-4-((2R,3R)-2-methyl-3-(3-methylbut-2-enyl)oxiran-2-yl)-1-oxaspiro[2.5]octan-6-yl 3-(2-(diethylamino)ethyl)azetidine-1-carboxylate] | Positive | 
11 | CCN(CC)CCCC1CN(C(=O)O[C@@H]2CC[C@]3(CO3)[C@@H]([C@@]3(C)O[C@@H]3CC=C(C)C)[C@@H]2OC)C1 [Example 104, (3R,4S,5S,6R)-5-methoxy-4-((2R,3R)-2-methyl-3-(3-methylbut-2-enyl)oxiran-2-yl)-1-oxaspiro[2.5]octan-6-yl 3-(3-(diethylamino)propyl)azetidine-1-carboxylate] | Positive | 
12 | CCN(CC)CCC1CCN1C(=O)O[C@@H]1CC[C@]2(CO2)[C@@H]([C@@]2(C)O[C@@H]2CC=C(C)C)[C@@H]1OC (stereo partly drawn) [Example 106, (3R,4S,5S,6R)-5-methoxy-4-((2R,3R)-2-methyl-3-(3-methylbut-2-enyl)oxiran-2-yl)-1-oxaspiro[2.5]octan-6-yl 2-(2-(diethylamino)ethyl)azetidine-1-carboxylate] |  | DIO Rat 11-day weight loss vs vehicle at indicated dose ([3]; DIO rat, 0.5 mpk sc, once a day for 11 days): 4.82%; DIO Mouse 10-day weight loss vs vehicle at indicated dose ([2]; DIO mouse, 0.1 mpk sc, once a day for 10 days): 2%; DIO Mouse 10-day weight loss vs vehicle at indicated dose ([2]; DIO mouse, 0.3 mpk sc, once a day for 10 days, 0.3 mg/kg): 10.8% and 0.8%
13 | CO[C@@H]1[C@H](OC(=O)/C=C/c2ccc(OCCN(C)C)cc2)CC[C@]2(CO2)[C@H]1[C@@]1(C)O[C@@H]1CC=C(C)C [compound A, [(3R,6R,7S,8S)-7-methoxy-8-[(2R,3R)-2-methyl-3-(3-methylbut-2-enyl)oxiran-2-yl]-2-oxaspiro[2.5]octan-6-yl] (E)-3-[4-[2-(dimethylamino)ethoxy]phenyl]prop-2-enoate, reference compound] | Positive | 
